Measurements as given in patent US9216973B2, “Insecticidal compounds” (Syngenta Participations AG, priority 2008, dated 2015).

The compounds below were run on Spodoptera littoralis (Egyptian cotton leafworm) (assay: Spodoptera littoralis cotton leaf disc spray test). Settings: foliar, 72 h, 200 ppm spray on cotton leaf discs, L1 larvae, mortality, feeding behavior, growth regulation 3 days after treatment.
Type: in vivo
Description: This Example illustrates the insecticidal and acaricidal properties of compounds of formula (I). The tests were performed as follows:
Spodoptera littoralis (Egyptian cotton leafworm):
Cotton leaf discs were placed on agar in a 24-well microtiter plate and sprayed with test solutions at an application rate of 200 ppm. After drying, the leaf discs were infested with 5 L1 larvae. The samples were checked for mortality, feeding behavior, and growth regulation 3 days after treatment (DAT). The following compound gave at least 80% control of Spodoptera littoralis: A1, A2, A5, A6, A7, A8, A10, A11, A12, A13, A14, A15, A16, A17, A18, A19, A21, A22, A23, A24, A25, A30, A31, A32, A33, A34, A35, A39, A40, A41 A42, A43, A44, A45, A46, A47, A48, A49, A50, A51, A53, A54, A55, A59, A60, A61, A62. Heliothis virescens (Tobacco budworm): Eggs (0-24 h old) were placed in 24-well microtiter plate on artificial diet and treated with test solutions at an application rate of 200 ppm (concentration in well 18 ppm) by pipetting. After an incubation period of 4 days, samples were checked for egg mortality, larval mortality, and growth regulation. The following compound gave at least 80% control of Heliothis virescens: A1, A2, A3, A4, A5, A6, A7, A8, A10, A11, A12, A13, A14, A15, A16, A18, A19, A21, A22, A24, A25, A30, A31, A32, A33, A34, A35, A37, A38, A39, A40, A42, A43, A44, A45, A46, A47, A48, A49, A50, A51, A55, AA57, A58, A59, A60, A61, A62. Plutella xylostella (Diamond back moth): 24-well microtiter plate (MTP) with artificial diet was treated with test solutions at an application rate of 200 ppm (concentration in well 18 ppm) by pipetting. After drying, the MTP's were infested with L2 larvae (7-12 per well). After an incubation period of 6 days, samples were checked for larval mortality and growth regulation. The following compound gave at least 80% control of Plutella xylostella: A1, A2, A5, A6, A7, A8, A9, A10, A11, A12, A13, A14, A15, A16, A17, A18, A19, A20, A21, A22, A24, A25, A30, A31, A32, A33, A34, A35, A37, A38, A39, A40, A42, A43, A44, A45, A46, A47, A48, A49, A50, A51, A52, A53, A54, A55, A57, A58, A59, A60, A61, A62, B3. Diabrotica balteata (Corn root worm): A 24-well microtiter plate (MTP) with artificial diet was treated with test solutions at an application rate of 200 ppm (concentration in well 18 ppm) by pipetting. After drying, the MTP's were infested with L2 larvae (6-10 per well). After an incubation period of 5 days, samples were checked for larval mortality and growth regulation. The following compound gave at least 80% control of Diabrotica balteata: A1, A2, A5, A6, A7, A10, A11, A12, A13, A14, A15, A16, A17, A18, A19, A21, A22, A24, A25, A30, A31, A32, A33, A34, A35, A38, A39, A40, A42, A43, A44, A45, A46, A47, A48, A49, A50, A59, A60, A61, A62. Thrips tabaci (Onion thrips): Sunflower leaf discs were placed on agar in a 24-well microtiter plate and sprayed with test solutions at an application rate of 200 ppm. After drying, the leaf discs were infested with an […] population of mixed ages. After an incubation period of 7 days, samples were checked for mortality. The following compounds gave at least 80% control of Thrips tabaci: A1, A2, A5, A6, A7, A8, A10, A12, A13, A14, A15, A16, A17, A18, A19, A21, A24, A25, A30, A31, A32, A33, A34, A35, A39, A42, A43, A44, A45, A46, A47, A48, A49, A50, A51, A53, A54, A57, A58, A59, A60, A61, A62. Tetranychus urticae (Two-spotted spider mite): Bean leaf discs on agar in 24-well microtiter plates were sprayed with test solutions at an application rate of 200 ppm. After drying, the leaf discs are infested with mite populations of mixed ages. 8 days later, discs are checked for egg mortality, larval mortality, and adult mortality. […]

| SMILES | pest or weed control at 200 ppm |
| --- | --- |
| Cc1cc(C2CC(c3cc(Cl)cc(Cl)c3)(C(F)(F)F)ON2C)ccc1C(=O)NC1CSC1 (centres unmarked) [A21] | ≥ 80% |
| Cc1cc(C2=NOC(c3cc(Cl)cc(Cl)c3)(C(F)(F)F)C2Br)ccc1C(=O)NC1C[S+]([O-])C1 (centres unmarked) [A7] | ≥ 80% |
| Cc1cc(C2=NCC(c3cc(Cl)cc(Cl)c3)(C(F)(F)F)C2)ccc1C(=O)NC1CSC1 (centres unmarked) [A49] | ≥ 80% |
| O=C(NC1C[S+]([O-])C1)c1ccc(C2=NOC(c3cc(Cl)cc(Cl)c3)(C(F)(F)F)C2Br)c2ccccc12 (centres unmarked) [A44] | ≥ 80% |
| O=C(NC1CS(=O)(=O)C1)c1ccc(C2=NOC(c3cc(Cl)cc(Cl)c3)(C(F)(F)F)C2)c2ccccc12 (centres unmarked) [A15] | ≥ 80% |
| Cc1cc(N2CC(c3cc(Cl)cc(Cl)c3)(C(F)(F)F)OC2=O)ccc1C(=O)NC1CSC1 (centres unmarked) [A11] | ≥ 80% |
| Cc1cc(C2=NOC(c3cc(Cl)cc(Cl)c3)(C(F)(F)F)C2Cl)ccc1C(=O)NC1(C)CSC1 (centres unmarked) [A33] | ≥ 80% |
| Cc1cc(C2CC(c3cc(Cl)cc(Cl)c3)(C(F)(F)F)ON2C)ccc1C(=O)NC1CS(=O)(=O)C1 (centres unmarked) [A19] | ≥ 80% |
| Cc1cc(C2=NOC(c3cc(Cl)cc(Cl)c3)(C(F)(F)F)C2O)ccc1C(=O)NC1CSC1 (centres unmarked) [A54] | ≥ 80% |
| Cc1cc(C2=NN(C)C(c3cc(Cl)cc(Cl)c3)(C(F)(F)F)C2)ccc1C(=O)NC1CSC1 (centres unmarked) [A14] | ≥ 80% |
| Cc1cc(C2=NOC(c3cc(Cl)cc(Cl)c3)(C(F)(F)F)C2Br)ccc1C(=O)NC1CSC1 (centres unmarked) [A6] | ≥ 80% |
| O=C(NC1CSC1)c1ccc(C2=NOC(c3cc(Cl)cc(Cl)c3)(C(F)(F)F)C2)c2ccccc12 (centres unmarked) [A2] | ≥ 80% |
| Cc1cc(C2=NCC(c3cc(Cl)cc(Cl)c3)(C(F)(F)F)C2)ccc1C(=O)NC1(C)CSC1 (centres unmarked) [A47] | ≥ 80% |
| Cc1cc(C2=NOC(c3cc(Cl)cc(Cl)c3)(C(F)(F)F)O2)ccc1C(=O)NC1CSC1 (centres unmarked) [A17] | ≥ 80% |
| Cc1cc(C2=NN(C)C(c3cc(Cl)cc(Cl)c3)(C(F)(F)F)C2)ccc1C(=O)NC1C[S+]([O-])C1 (centres unmarked) [A13] | ≥ 80% |
| Cc1cc(C2CC(c3cc(Cl)cc(Cl)c3)(C(F)(F)F)ON2C)ccc1C(=O)NC1C[S+]([O-])C1 (centres unmarked) [A18] | ≥ 80% |
| Cc1cc(C2=NOC(c3cc(Cl)cc(Cl)c3)(C(F)(F)F)C2O)ccc1C(=O)NC1CS(=O)(=O)C1 (centres unmarked) [A51] | ≥ 80% |
| Cc1cc(C2=NCC(c3cc(Cl)cc(Cl)c3)(C(F)(F)F)C2)ccc1C(=O)NC1C[S+]([O-])C1 (centres unmarked) [A48] | ≥ 80% |

| SMILES | pest or weed control at 200 ppm |
| --- | --- |
| Cc1cc(C2=NOC(c3cc(Cl)cc(Cl)c3)(C(F)(F)F)C2F)ccc1C(=O)NC1C[S+]([O-])C1 (centres unmarked) [A62] | ≥ 80% |
| Cc1cc(C2=NOC(c3cc(Cl)cc(Cl)c3)(C(F)(F)F)C2F)ccc1C(=O)NC1(C)CSC1 (centres unmarked) [A60] | ≥ 80% |
| O=C(NC1C[S+]([O-])C1)c1ccc(C2=NOC(c3cc(Cl)cc(Cl)c3)(C(F)(F)F)C2)c2ccccc12 (centres unmarked) [A16] | ≥ 80% |
| Cc1cc(C2=NOC(c3cc(Cl)cc(Cl)c3)(C(F)(F)F)C2Cl)ccc1C(=O)NC1C[S+]([O-])C1 (centres unmarked) [A34] | ≥ 80% |
| Cc1cc(C2=NOC(c3cc(Cl)cc(Cl)c3)(C(F)(F)F)C2O)ccc1C(=O)NC1C[S+]([O-])C1 (centres unmarked) [A53] | ≥ 80% |
| Cc1cc(C2=NOC(c3cc(Cl)cc(Cl)c3)(C(F)(F)F)C2Br)ccc1C(=O)NC1(C)CSC1 (centres unmarked) [A5] | ≥ 80% |
| Cc1cc(C2=NOC(c3cc(Cl)cc(Cl)c3)(C(F)(F)F)/C2=N/O)ccc1C(=O)NC1CS(=O)(=O)C1 (centres unmarked) [A55] | ≥ 80% |
| Cc1cc(N2CC(c3cc(Cl)cc(Cl)c3)(C(F)(F)F)OC2=O)ccc1C(=O)NC1C[S+]([O-])C1 (centres unmarked) [A10] | ≥ 80% |
| Cc1cc(C2=NOC(c3cc(Cl)cc(Cl)c3)(C(F)(F)F)C2Cl)ccc1C(=O)NC1CS(=O)(=O)C1 (centres unmarked) [A32] | ≥ 80% |
| Cc1cc(C2=NOC(c3cc(Cl)cc(Cl)c3)(C(F)(F)F)C2F)ccc1C(=O)NC1CSC1 (centres unmarked) [A61] | ≥ 80% |
| O=C(NC1CS(=O)(=O)C1)c1ccc(C2=NOC(c3cc(Cl)cc(Cl)c3)(C(F)(F)F)C2Br)c2ccccc12 (centres unmarked) [A42] | ≥ 80% |
| Cc1cc(C2=NCC(c3cc(Cl)cc(Cl)c3)(C(F)(F)F)C2)ccc1C(=O)NC1CS(=O)(=O)C1 (centres unmarked) [A46] | ≥ 80% |
| O=C(NC1CS(=O)(=O)C1)c1ccc(C2=NOC(c3cc(Cl)cc(Cl)c3)(C(F)(F)F)C2)c2nsnc12 (centres unmarked) [A22] | ≥ 80% |
| Cc1cc(C2=NOC(c3cc(Cl)cc(Cl)c3)(C(F)(F)F)C2F)ccc1C(=O)NC1CS(=O)(=O)C1 (centres unmarked) [A59] | ≥ 80% |
| Cc1cc(C2=NN(C)C(c3cc(Cl)cc(Cl)c3)(C(F)(F)F)C2)ccc1C(=O)NC1(C)CSC1 (centres unmarked) [A12] | ≥ 80% |
| CC1(NC(=O)c2ccc(C3=NOC(c4cc(Cl)cc(Cl)c4)(C(F)(F)F)C3Br)c3ccccc23)CSC1 (centres unmarked) [A43] | ≥ 80% |
| CC1(NC(=O)c2ccc(C3=NOC(c4cc(Cl)cc(Cl)c4)(C(F)(F)F)C3)c3ccccc23)CSC1 (centres unmarked) [A1] | ≥ 80% |

Same assay, conditions: same protocol, 200 ppm

| SMILES | effect on mortality, feeding behavior, or growth regulation |
| --- | --- |
| Cc1nc2c(C3=NOC(c4cc(Cl)cc(Cl)c4)(C(F)(F)F)C3)ccc(C(=O)NC3C[S+]([O-])C3)c2o1 (centres unmarked) [A28] | little or no effect |
| Cc1nc2c(C3=NOC(c4cc(Cl)cc(Cl)c4)(C(F)(F)F)C3)ccc(C(=O)NC3(C)CSC3)c2o1 (centres unmarked) [A27] | little or no effect |
| Cc1nc2c(C3=NOC(c4cc(Cl)cc(Cl)c4)(C(F)(F)F)C3)ccc(C(=O)NC3CS(=O)(=O)C3)c2o1 (centres unmarked) [A26] | little or no effect |
| Cc1nc2c(C3=NOC(c4cc(Cl)cc(Cl)c4)(C(F)(F)F)C3)ccc(C(=O)NC3CSC3)c2o1 (centres unmarked) [A29] | little or no effect |
| Cc1cc(C2=NOC(c3cc(Cl)cc(Cl)c3)(C(F)(F)F)/C2=N/O)ccc1C(=O)NC1(C)CSC1 (centres unmarked) [A56] | little or no effect |
| CC1(NC(=O)c2cccc3c(C4=NOC(c5cc(Cl)cc(Cl)c5)(C(F)(F)F)C4)cccc23)CSC1 (centres unmarked) [A36] | little or no effect |
